Assay results: paper PMC9993459, “A novel selective spleen tyrosine kinase inhibitor SKI-O-703 (cevidoplenib) ameliorates lupus nephritis and serum-induced arthritis in murine models” (Clinical and Experimental Immunology, 2022)

How the values were obtained:
RET = RET (Homo sapiens, UniProt P07949); assay: Kinase assay (LANCE Ultra TR-FRET), RET; format: biochemical
Description: Kinase assays were conducted in 384-well plates using LANCE ultra 66 time-resolved fluorescence resonance energy transfer (TR-FRET) methods, according to the manufacturer’s instructions (Perkin-Elmer). In brief, each kinase was pre-incubated with a serially diluted compound for 30 min, incubated with ULight poly-GT peptide substrate and ATP for up to 1 h. Thirty minutes after adding Eu-labeled anti-phosphopeptides Ab diluted in LANCE Detection Buffer, LANCE signals were measured with an EnVision multilabel reader (Perkin-Elmer).

NZB/W F1 mice = assay: NZB/W mouse model of SLE / lupus nephritis, oral dosing; format: in vivo
Description: NZB/W female mice aged 18 weeks were assigned to four groups by distributing mice by body weight and anti-dsDNA IgG titer equivalently across the groups. Each group of mice was administered orally with 42 mg per kg body weight (mpk) of SKI-O-703 dissolved in 50 mM citric acid, 84 mpk of SKI-O-703, 30 mpk of tofacitinib (Selleckchem) dissolved in 0.5% carboxymethyl cellulose (Sigma Aldrich) containing 0.025% Tween 20, or a mixture of the two vehicles. The drugs were given once daily up to 34 weeks of age. Body weight was measured every 2 weeks and serum was collected every 4 weeks. At the termination of the experiments (34 weeks of age), serum, urine, spleen, BM, and kidneys were removed post mortem and assayed by histopathological and biochemical methods as below. Levels of blood urea nitrogen (BUN) and creatinine were measured by Knotus (Incheon, Korea).
Kidneys removed from the NZB/W mice were fixed in 4% paraformaldehyde, embedded in paraffin, sectioned at 3 μm thickness, and stained with periodic acid-Schiff (PAS) and hematoxylin (Sigma Aldrich). […] Glomerular size was measured using Image J software. To assess the glomerular size and hypercellularity of each mouse, more than 20 glomeruli per mouse were individually examined and averaged.
Kidneys and spleens of NZB/W mice were embedded in OCT compound (Sakura Finetek, Torrance, CA, USA) and snap-frozen in liquid nitrogen. Frozen sections were fixed in acetone and blocked with 10% normal donkey serum (Sigma Aldrich). Kidney sections were stained with a 1:200 dilution of anti-IgG-biotin (Sigma Aldrich), anti-IgM-biotin (Southern Biotech) and anti-C3-biotin (Bioss), followed by reaction with 1:200-dilution of streptavidin-cy3 (Invitrogen). Spleen sections were stained with anti-GL7-FITC, anti-CD4-APC, and anti-IgD-PE (all from BD Biosciences or eBioscience). Fluorescence images were acquired using a TCS SP5 confocal microscope (Leica). The area of GCs composed with GL7^+ cells per image was calculated using ImageJ software (NIH, Bethesda, MD, USA).
Titers of anti-dsDNA IgG Ab were measured by ELISA, as described previously. In brief, sera were diluted 1/10 000 to 1/50 000 in PBS and applied to immunosorbent plates (Nunc) precoated with 5 μg/ml poly-L-lysine and 5 μg/ml thymic DNA (Sigma Aldrich). The serum containing the highest titer of anti-dsDNA IgG was serially diluted and used as standard. The plates were incubated with anti-mouse IgG-biotin (Sigma Aldrich) and streptavidin-HRP (BD Biosciences). The concentration of albumin in urine was measured by quantitative ELISA using a mouse albumin ELISA kit (Bethyl), according to the manufacturer’s instructions. The concentration of serum B-cell activating factor of the TNF family (BAFF) was quantitated using a BAFF/BLys/TNFSF13B ELISA Kit (R&D Systems).
Single-cell suspensions of spleen and LN cells were prepared as previously described. Joint tissues from hind paws of KSTA mice were dissected free of soft tissue and bones, digested with 100 μg/ml Liberase (Roche) for 45 min at 37 °C, and filtered through a 70-μm-pore cell strainer (SPL Life Sciences) to prepare single cell suspensions of synovial infiltrates. The single cell suspensions were stained with an appropriate combination of mAbs and analyzed by FACS. The mAbs used were: CD138-PE, B220-PerCP or -APC-cy7, FAS-PE, CD19-PerCP or -APC, CD21-FITC or -APC, CD43-APC, CD23-PE-cy7, CD8a-PE, CD25-APC-cy7, CXCR5-biotin, GL7-FITC, CD45.2-FITC, CD27-FITC, Ki-67-FITC, Gr-1-FITC, CD4-FITC or -APC-cy7, phospho-Syk-PE, CD11b-PE or -PerCP, PD-1-APC, CD44-APC-cy7, and F4/80-PerCP mAbs (all from BD Biosciences, eBioscience or Biolegend). Streptavidin-PerCP was purchased from BD Biosciences.
Splenic CD19^+ B cells from NZB/W mice were sorted by MACS, and lysed with Trizol reagent (Invitrogen) followed by standard methods of total RNA purification. The RNA was assayed by RT and quantitative PCR as described. […]

mouse primary B cells = assay: CP670-dilution proliferation assay, BCR crosslinking (anti-IgM) stimulated B cells; format: cell-based; conditions: 0.1–5 μM, CP670 dilution, 72 h
Description: Splenic CD19^+ B cells from C57BL/6 mice were sorted by MACS (Milteny Biotec), stained with 3 μM cell proliferation dye eFluor 670 (CP670; eBioscience), and cultured for 72 h in the presence of either 10 μg/ml LPS (Sigma Aldrich) or 5 μg/ml anti-mouse IgM (Jackson Immuno Research Laboratories), 10 μg/ml anti-CD40 mAb (Biolegend) and 10 ng/ml IL-4 (Peprotech), and assayed by FACS. To detect apoptotic cells, unstimulated cells were cultured for 24 h, stained with Annexin V and 7-aminoactinomycin D (7-AAD), and assayed by FACS.
Figure 2: in vitro effects of SKI-O -703 on the proliferation, survival, and differentiation of B cells. Mouse primary B cells were labeled with CP670, and stimulated with either anti-IgM mAb, CD40L and IL-4 (A) or LPS (B) for 72 h in the presence or absence of SKI-O-703 and tofacitinib at the indicated concentrations; they were then assayed by FACS. (C and D) Mouse primary B cells were cultured as in A and B for 24 h, stained with Annexin V and 7-AAD, and assayed by FACS. Representative FACS profiles and graphs displaying mean Annexin V-positivity are shown. (E) Human primary B cells were stimulated with CpG ODN plus IL-2 (to detect IgM and IgG) or CpG ODN 2006 plus IFN-α (to detect IL-6) in the presence or absence of inhibitors. The culture supernatants were assayed by ELISA. Graphs are expressed as % positivity relative to the controls (without inhibitor). […]

[1] = 84 mpk oral once daily, 18-34 weeks of age
[2] = high dose (84 mpk), 34 weeks, FACS

Sequence of RET (P07949 29-1114, species assumed): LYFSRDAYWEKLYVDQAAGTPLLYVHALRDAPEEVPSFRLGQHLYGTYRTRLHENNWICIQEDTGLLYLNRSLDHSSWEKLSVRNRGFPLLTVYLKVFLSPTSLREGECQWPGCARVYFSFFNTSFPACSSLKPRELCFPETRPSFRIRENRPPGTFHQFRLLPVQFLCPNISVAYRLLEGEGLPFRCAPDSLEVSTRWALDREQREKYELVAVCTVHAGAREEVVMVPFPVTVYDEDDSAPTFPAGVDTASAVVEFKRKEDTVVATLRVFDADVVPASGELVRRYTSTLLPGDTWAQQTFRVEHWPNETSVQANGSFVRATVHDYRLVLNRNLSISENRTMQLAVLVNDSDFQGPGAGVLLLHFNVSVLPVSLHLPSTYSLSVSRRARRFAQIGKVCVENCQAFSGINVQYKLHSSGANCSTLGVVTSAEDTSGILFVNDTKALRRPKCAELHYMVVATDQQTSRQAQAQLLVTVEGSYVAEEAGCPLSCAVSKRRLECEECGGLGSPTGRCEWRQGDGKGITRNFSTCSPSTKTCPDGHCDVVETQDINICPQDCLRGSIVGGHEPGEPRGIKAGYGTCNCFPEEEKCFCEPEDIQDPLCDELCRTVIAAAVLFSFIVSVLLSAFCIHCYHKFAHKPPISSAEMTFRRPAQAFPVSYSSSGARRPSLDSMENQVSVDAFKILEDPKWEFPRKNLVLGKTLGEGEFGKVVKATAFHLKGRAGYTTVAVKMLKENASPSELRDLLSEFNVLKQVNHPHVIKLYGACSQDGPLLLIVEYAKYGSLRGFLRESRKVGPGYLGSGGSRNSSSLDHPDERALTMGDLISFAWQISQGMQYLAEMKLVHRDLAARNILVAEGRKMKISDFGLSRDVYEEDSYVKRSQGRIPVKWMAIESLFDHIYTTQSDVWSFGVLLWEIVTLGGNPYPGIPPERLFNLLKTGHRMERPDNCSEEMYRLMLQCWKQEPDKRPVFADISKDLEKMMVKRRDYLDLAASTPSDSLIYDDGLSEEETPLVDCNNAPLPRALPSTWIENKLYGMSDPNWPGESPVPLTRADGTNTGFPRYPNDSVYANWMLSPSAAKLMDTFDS

Structure (SMILES)	Ratio to Syk (RET) (RET; IC50 ratio to Syk)	IC50 (RET; kinase activity, TR-FRET) [nM]	Concentrations of BUN and creatinine (NZB/W F1 mice; 42 mpk (low-dose), 34 weeks of age)	Rise of serum anti-dsDNA IgG Ab level (NZB/W F1 mice; 42 mpk oral once daily)	Glomerular IgM and C3 staining intensities (NZB/W F1 mice; 84 mpk (high dose))	Concentrations of BUN and creatinine (NZB/W F1 mice; 84 mpk (high-dose), 34 weeks of age)	Body weights (NZB/W F1 mice; [1])	Spleen weights (NZB/W F1 mice; [1])	Rise of serum anti-dsDNA IgG Ab level (NZB/W F1 mice; 84 mpk oral once daily, P < 0.01 by two-way ANOVA)	Concentration of urinary albumin (NZB/W F1 mice; 84 mpk, 34 weeks of age, vehicle mean 742.9 mg/dl)	Number of splenic T cells (NZB/W F1 mice; [2])	Total spleen cells (NZB/W F1 mice; [2])	CXCR5+PD-1+ Tfh cells (NZB/W F1 mice; high dose (84 mpk), spleen)	Splenic follicular, GC B cells and plasma cells (NZB/W F1 mice; high dose (84 mpk), vs vehicle controls)	Level of serum BAFF (NZB/W F1 mice; high dose, ELISA)	BAFF receptor expression in splenic B cells (NZB/W F1 mice; high dose, quantitative RT-PCR)	BM hematopoiesis (NZB/W F1 mice; long-term treatment (16 weeks))	BCR crosslinking-induced proliferation (mouse primary B cells)
Cc1nn(-c2ccnc(Nc3ccc4c(c3)c(C(=O)C3CC3)cn4C)n2)cc1CN1C[C@H](O)CO1 [SKI-O-592]	67	412																
CS(=O)(=O)O.CS(=O)(=O)O.Cc1nn(-c2ccnc(Nc3ccc4c(c3)c(C(=O)C3CC3)cn4C)n2)cc1CN1C[C@H](O)CO1 [SKI-O-703, (S)-cyclopropyl(5-((4-(4-((4-hydroxyisoxazolidin-2-yl)methyl)-3-methyl-1H-pyrazol-1-yl)pyrimidin-2-yl)amino)-1-methyl-1H-indol-3-yl)methanone dimesylate]			significantly lowered	did not have the same effect, and even temporarily elevated the Ab titer	significantly reduced	significantly lowered	without significantly affecting body weights	significantly reduced spleen weights	dramatically attenuated	markedly reduced	not significantly altered	significantly less numerous	reduced in number	significantly less numerous	also reduced	reduced level	appeared not to interfere with BM hematopoiesis	inhibited BCR crosslinking-induced proliferation in a concentration-dependent manner
